What was measured:
Test in all cases: relative viability (nuclei count vs DMSO), 5 days (fraction); higher = more cells survive
201T = tested on: 201T
In short: (§1)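 Relative viability divides the nuclei count in treated wells by that in vehicle wells. Lung cancer cell lines were seeded in 1536-well plates, dosed by pin tool the next day, and fixed and stained after 5 days in one step with final 0.05% Triton X-100, 1% formaldehyde and 1 ug/ml Hoechst. Dosing was a single drug or a fixed anchor-drug dose plus five library-drug doses (not always all listed) in √10 steps, and values are medians of duplicate plates imaged at 4×.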

ABC-1 = tested on: ABC-1
In short: as §1

BEN = tested on: BEN
In short: as §1

CAL-12T = tested on: CAL-12T
In short: as §1

COR-L 105 = tested on: COR-L 105
In short: as §1

EKVX = tested on: EKVX
In short: as §1

EMC-BAC-2 = tested on: EMC-BAC-2
In short: as §1

HCC-15 = tested on: HCC-15
In short: as §1

HCC-44 = tested on: HCC-44
In short: as §1

LK-2 = tested on: LK-2
In short: as §1

LU99A = tested on: LU99A
In short: as §1

NCI-H1651 = tested on: NCI-H1651
In short: as §1

NCI-H2023 = tested on: NCI-H2023
In short: as §1

NCI-H322M = tested on: NCI-H322M
In short: as §1

NCI-H358 = tested on: NCI-H358
In short: as §1

NCI-H460 = tested on: NCI-H460
In short: as §1

NCI-H520 = tested on: NCI-H520
In short: as §1

NCI-H522 = tested on: NCI-H522
In short: as §1

NCI-H727 = tested on: NCI-H727
In short: as §1

NCI-H838 = tested on: NCI-H838
In short: as §1

PC-3 [JPC-3] = tested on: PC-3 [JPC-3]
In short: as §1

SW 900 = tested on: SW 900
In short: as §1

Q: For CCNC(=O)c1noc(-c2cc(C(C)C)c(O)cc2O)c1-c1ccc(CN2CCOCC2)cc1 [Luminespib] + Cc1cc(Nc2cc(N3CCN(C)CC3)nc(Sc3ccc(NC(=O)C4CC4)cc3)n2)n[nH]1 [Tozasertib] (partner 0.1 µM), which relative viability (201T; first compound 0.002 µM) is on record?
A: 0.988

Q: And the relative viability (201T; first compound 0.006325 µM)?
A: 0.907

Q: What about the relative viability (201T; first compound 0.02 µM) of the same compound?
A: 0.665

Q: What about the relative viability (201T; first compound 0.06325 µM) of the same compound?
A: 0.89

Q: And the relative viability (201T; first compound 0.2 µM)?
A: 0.849

Q: What about the relative viability (ABC-1; first compound 0.002 µM) of the same compound?
A: 0.196

Q: What about the relative viability (ABC-1; first compound 0.006325 µM) of the same compound?
A: 0.21

Q: What about the relative viability (ABC-1; first compound 0.02 µM) of the same compound?
A: 0.139

Q: What about the relative viability (ABC-1; first compound 0.06325 µM) of the same compound?
A: 0.173

Q: And the relative viability (ABC-1; first compound 0.2 µM)?
A: 0.14

Q: And the relative viability (BEN; first compound 0.002 µM)?
A: 0.554

Q: What about the relative viability (BEN; first compound 0.006325 µM) of the same compound?
A: 0.458

Q: And the relative viability (BEN; first compound 0.02 µM)?
A: 0.475

Q: And the relative viability (BEN; first compound 0.06325 µM)?
A: 0.37

Q: What about the relative viability (BEN; first compound 0.2 µM) of the same compound?
A: 0.383

Q: What about the relative viability (CAL-12T; first compound 0.002 µM) of the same compound?
A: 0.361

Q: And the relative viability (CAL-12T; first compound 0.006325 µM)?
A: 0.319

Q: What about the relative viability (CAL-12T; first compound 0.02 µM) of the same compound?
A: 0.211

Q: What about the relative viability (CAL-12T; first compound 0.06325 µM) of the same compound?
A: 0.113

Q: And the relative viability (CAL-12T; first compound 0.2 µM)?
A: 0.107

Q: What about the relative viability (COR-L 105; first compound 0.002 µM) of the same compound?
A: 0.37

Q: What about the relative viability (COR-L 105; first compound 0.006325 µM) of the same compound?
A: 0.385

Q: And the relative viability (COR-L 105; first compound 0.02 µM)?
A: 0.232

Q: What about the relative viability (COR-L 105; first compound 0.06325 µM) of the same compound?
A: 0.465

Q: What about the relative viability (COR-L 105; first compound 0.2 µM) of the same compound?
A: 0.191

Q: What about the relative viability (EKVX; first compound 0.002 µM) of the same compound?
A: 0.436

Q: What about the relative viability (EKVX; first compound 0.006325 µM) of the same compound?
A: 0.389

Q: And the relative viability (EKVX; first compound 0.06325 µM)?
A: 0.346

Q: And the relative viability (EKVX; first compound 0.2 µM)?
A: 0.165

Q: And the relative viability (EMC-BAC-2; first compound 0.002 µM)?
A: 0.345

Q: What about the relative viability (EMC-BAC-2; first compound 0.006325 µM) of the same compound?
A: 0.261

Q: What about the relative viability (EMC-BAC-2; first compound 0.02 µM) of the same compound?
A: 0.28

Q: What about the relative viability (EMC-BAC-2; first compound 0.06325 µM) of the same compound?
A: 0.342

Q: What about the relative viability (EMC-BAC-2; first compound 0.2 µM) of the same compound?
A: 0.299

Q: And the relative viability (HCC-15; first compound 0.002 µM)?
A: 0.466

Q: And the relative viability (HCC-15; first compound 0.006325 µM)?
A: 0.441

Q: And the relative viability (HCC-15; first compound 0.02 µM)?
A: 0.444

Q: And the relative viability (HCC-15; first compound 0.06325 µM)?
A: 0.173

Q: And the relative viability (HCC-15; first compound 0.2 µM)?
A: 0.0953

Q: What about the relative viability (HCC-44; first compound 0.002 µM) of the same compound?
A: 1.01

Q: What about the relative viability (HCC-44; first compound 0.006325 µM) of the same compound?
A: 0.766

Q: And the relative viability (HCC-44; first compound 0.02 µM)?
A: 0.99

Q: And the relative viability (HCC-44; first compound 0.06325 µM)?
A: 0.169

Q: What about the relative viability (HCC-44; first compound 0.2 µM) of the same compound?
A: 0.159

Q: What about the relative viability (LK-2; first compound 0.002 µM) of the same compound?
A: 0.184

Q: And the relative viability (LK-2; first compound 0.006325 µM)?
A: 0.194

Q: And the relative viability (LK-2; first compound 0.02 µM)?
A: 0.154

Q: And the relative viability (LK-2; first compound 0.06325 µM)?
A: 0.208

Q: What about the relative viability (LK-2; first compound 0.2 µM) of the same compound?
A: 0.182

Q: What about the relative viability (LU99A; first compound 0.002 µM) of the same compound?
A: 0.261

Q: What about the relative viability (LU99A; first compound 0.006325 µM) of the same compound?
A: 0.277

Q: What about the relative viability (LU99A; first compound 0.02 µM) of the same compound?
A: 0.252

Q: What about the relative viability (LU99A; first compound 0.06325 µM) of the same compound?
A: 0.176

Q: What about the relative viability (LU99A; first compound 0.2 µM) of the same compound?
A: 0.139

Q: What about the relative viability (NCI-H1651; first compound 0.002 µM) of the same compound?
A: 0.812

Q: And the relative viability (NCI-H1651; first compound 0.006325 µM)?
A: 0.577

Q: And the relative viability (NCI-H1651; first compound 0.02 µM)?
A: 0.611

Q: What about the relative viability (NCI-H1651; first compound 0.06325 µM) of the same compound?
A: 0.313

Q: What about the relative viability (NCI-H1651; first compound 0.2 µM) of the same compound?
A: 0.154

Q: And the relative viability (NCI-H2023; first compound 0.002 µM)?
A: 0.395

Q: And the relative viability (NCI-H2023; first compound 0.006325 µM)?
A: 0.389

Q: And the relative viability (NCI-H2023; first compound 0.02 µM)?
A: 0.343

Q: And the relative viability (NCI-H2023; first compound 0.06325 µM)?
A: 0.0657

Q: And the relative viability (NCI-H2023; first compound 0.2 µM)?
A: 0.0748

Q: What about the relative viability (NCI-H322M; first compound 0.002 µM) of the same compound?
A: 0.423

Q: What about the relative viability (NCI-H322M; first compound 0.006325 µM) of the same compound?
A: 0.458

Q: What about the relative viability (NCI-H322M; first compound 0.02 µM) of the same compound?
A: 0.422

Q: And the relative viability (NCI-H322M; first compound 0.06325 µM)?
A: 0.331

Q: And the relative viability (NCI-H322M; first compound 0.2 µM)?
A: 0.301

Q: And the relative viability (NCI-H358; first compound 0.002 µM)?
A: 0.0938

Q: And the relative viability (NCI-H358; first compound 0.006325 µM)?
A: 0.115

Q: What about the relative viability (NCI-H358; first compound 0.02 µM) of the same compound?
A: 0.104

Q: And the relative viability (NCI-H358; first compound 0.06325 µM)?
A: 0.0661

Q: And the relative viability (NCI-H358; first compound 0.2 µM)?
A: 0.0636

Q: And the relative viability (NCI-H460; first compound 0.002 µM)?
A: 0.554

Q: What about the relative viability (NCI-H460; first compound 0.006325 µM) of the same compound?
A: 0.421

Q: What about the relative viability (NCI-H460; first compound 0.02 µM) of the same compound?
A: 0.597

Q: And the relative viability (NCI-H460; first compound 0.06325 µM)?
A: 0.0212

Q: And the relative viability (NCI-H460; first compound 0.2 µM)?
A: 0.0218

Q: And the relative viability (NCI-H520; first compound 0.002 µM)?
A: 0.404

Q: What about the relative viability (NCI-H520; first compound 0.006325 µM) of the same compound?
A: 0.449

Q: What about the relative viability (NCI-H520; first compound 0.02 µM) of the same compound?
A: 0.345

Q: And the relative viability (NCI-H520; first compound 0.06325 µM)?
A: 0.195

Q: And the relative viability (NCI-H520; first compound 0.2 µM)?
A: 0.221

Q: And the relative viability (NCI-H522; first compound 0.002 µM)?
A: 0.621

Q: What about the relative viability (NCI-H522; first compound 0.006325 µM) of the same compound?
A: 0.545

Q: What about the relative viability (NCI-H522; first compound 0.02 µM) of the same compound?
A: 0.512

Q: What about the relative viability (NCI-H522; first compound 0.06325 µM) of the same compound?
A: 0.584

Q: What about the relative viability (NCI-H522; first compound 0.2 µM) of the same compound?
A: 0.512

Q: And the relative viability (NCI-H727; first compound 0.002 µM)?
A: 0.61

Q: And the relative viability (NCI-H727; first compound 0.006325 µM)?
A: 0.614

Q: And the relative viability (NCI-H727; first compound 0.02 µM)?
A: 0.505

Q: What about the relative viability (NCI-H727; first compound 0.06325 µM) of the same compound?
A: 0.314

Q: What about the relative viability (NCI-H727; first compound 0.2 µM) of the same compound?
A: 0.291

Q: And the relative viability (NCI-H838; first compound 0.002 µM)?
A: 0.272

Q: And the relative viability (NCI-H838; first compound 0.006325 µM)?
A: 0.215

Q: And the relative viability (NCI-H838; first compound 0.02 µM)?
A: 0.308

Q: What about the relative viability (NCI-H838; first compound 0.06325 µM) of the same compound?
A: 0.164

Q: What about the relative viability (NCI-H838; first compound 0.2 µM) of the same compound?
A: 0.123

Q: And the relative viability (PC-3 [JPC-3]; first compound 0.002 µM)?
A: 0.892

Q: And the relative viability (PC-3 [JPC-3]; first compound 0.006325 µM)?
A: 0.845

Q: What about the relative viability (PC-3 [JPC-3]; first compound 0.02 µM) of the same compound?
A: 0.801

Q: What about the relative viability (PC-3 [JPC-3]; first compound 0.06325 µM) of the same compound?
A: 0.656

Q: And the relative viability (PC-3 [JPC-3]; first compound 0.2 µM)?
A: 0.375

Q: What about the relative viability (SW 900; first compound 0.002 µM) of the same compound?
A: 0.638

Q: And the relative viability (SW 900; first compound 0.006325 µM)?
A: 0.623

Q: And the relative viability (SW 900; first compound 0.02 µM)?
A: 0.591

Q: What about the relative viability (SW 900; first compound 0.06325 µM) of the same compound?
A: 0.15

Q: And the relative viability (SW 900; first compound 0.2 µM)?
A: 0.117

Reference: the supplement of paper PMC10307832
